{
  "source": "patent US20040048195A1",
  "about": "“Heat-sensitive lithographic printing plate precursor” (AGFA-GEVAERT, priority 2002, published 2004)",
  "assay_type_in_all_cases": "physicochemical",
  "key": {"[1]": {"experiment": "Solubility of the IR-dyes (supersaturated solution, filtration, spectrophotometric determination)", "conditions": "for solubility: thermodynamic from solid", "procedure": "The solubility of the IR-dyes IR-1 to −5 and of a comparison dye Cl (commercially available from FEW Chemicals GmbH) was determined as follows:\nthe extinction coefficient of the dyes was measured in methanol with a HP8453 UV/VIS/NIR spectrophotometer;\na supersaturated solution of the dyes in a) 2-methoxyl-propanol (MOP) and b) water/NaOH (pH=9) was prepared; after filtration the concentration of dissolved dye was determined by dissolution with methanol using the previous determined extinction coefficient. [drawing 8]"}, "[2]": {"experiment": "Test of inhibiting capability of the dyes: dissolution time of unexposed novolac/dye coating in Agfa EP26 developer", "conditions": "dye 35 mg/m^2 in 0.9 g/m^2 novolac, Agfa EP26 developer at 20° C., reference without dye 30 sec", "procedure": "A layer of novolac (Alnovol SPN452 from Clariant, a 40.5 wt. % solution in methoxypropanol) and the dyes specified in Table 2 were coated on the above support. After drying during 1 min at 130° C., the samples contained 0.9 g/m^2 of novolac. A series of unexposed samples is immersed in Agfa EP26 developer at 20° C., each sample during a different time period. After the immersion period, the sample was removed from the developer, immediately rinsed with water, dried and then the dissolution of the coating in the developer was measured by comparing the weight of the sample before and after the development. As soon as the coating is dissolved completely, no more weight loss is measured upon longer immersion time periods, i.e. a curve representing weight loss as a function of immersion time reaches a plateau from the moment of complete dissolution of the layer, which is referred to herein as “dissolution time”. When the dissolution time of the sample containing the IR dye is longer than the dissolution time of the sample without the IR dye, then the IR dye clearly acts as an inhibitor."}, "[3]": {"experiment": "Solubility of the IR-dyes (supersaturated solution, filtration, spectrophotometric determination)", "conditions": "water/NaOH, pH 11.7, aqueous buffer, thermodynamic from solid, insoluble at pH = 9; NaOH was added until pH = 11.7; read-out: Solubility in H2O/NaOH"}},
  "note": "Read-outs that look alike come from different tables or passages of the source.",
  "data": [
    {"smiles": "CN1/C(=C/C=C2\\CCCC(/C=C/C3=[N+](C)c4ccc5ccccc5c4C3(C)C)=C2Cl)C(C)(C)c2c1ccc1ccccc21", "note": "[Comparison, reference compound]", "values": [
      {"measurement": "solubility", "setting": "[1]; 2-methoxyl-propanol (MOP), organic solvent or mixture, 2-methoxyl-propanol (MOP), read-out: Solubility in MOP", "result": 50.1, "unit": "mg/mL"},
      {"measurement": "Dissolution time", "setting": "[2]", "result": 60, "unit": "s"},
      {"measurement": "solubility", "setting": "[3]", "result": "< 2", "unit": "µg/mL"}
    ]},
    {"smiles": "CC1(C)C(/C=C/C2=C(Sc3ccccc3C(=O)O)C(=C/C=C3/N(CCCCS(=O)(=O)[O-])c4ccccc4C3(C)C)/CCC2)=[N+](CCCCS(=O)(=O)[O-])c2ccccc21.[K+]", "note": "[IR-dye 5]", "values": [
      {"measurement": "solubility", "setting": "[1]; 2-methoxyl-propanol (MOP) with tri-ethylamine, organic solvent or mixture, 2-methoxyl-propanol (MOP), tri-ethylamine was added to dissolve the dye, read-out: Solubility in MOP", "result": 91.3, "unit": "mg/mL"},
      {"measurement": "solubility", "setting": "[1]; water/NaOH, pH 9, aqueous buffer, water/NaOH, pH = 9, read-out: Solubility in H2O/NaOH at pH = 9", "result": "> 50", "unit": "mg/mL"},
      {"measurement": "Dissolution time", "setting": "[2]; listed as IR-5", "result": 25, "unit": "s"}
    ]},
    {"smiles": "CC1(C)C(/C=C/C2=C(Sc3ccccc3C(=O)O)C(=C/C=C3/N(CCCCS(=O)(=O)[O-])c4ccccc4C3(C)C)/CCC2)=[N+](CCCCS(=O)(=O)[O-])c2ccccc21.[K+]", "note": "[IR-dye 1]", "values": [
      {"measurement": "Solubility in MOP", "setting": "[1]; 2-methoxyl-propanol (MOP)", "result": 3.8, "unit": "g/L"},
      {"measurement": "Solubility in H2O/NaOH at pH = 9", "setting": "[1]; water/NaOH, pH = 9", "result": 40.1, "unit": "g/l"},
      {"measurement": "Dissolution time", "setting": "[2]; listed as IR-1", "result": 30, "unit": "s"}
    ]},
    {"smiles": "CC1(C)C(/C=C/C2=C(Sc3ccccc3C(=O)O)C(=C/C=C3/N(CCCCS(=O)(=O)[O-])c4ccccc4C3(C)C)/CCC2)=[N+](CCCCS(=O)(=O)[O-])c2ccccc21.[K+]", "note": "[IR-dye 2]", "values": [
      {"measurement": "Solubility in MOP", "setting": "[1]; 2-methoxyl-propanol (MOP)", "result": 0.42, "unit": "g/L"},
      {"measurement": "Solubility in H2O/NaOH at pH = 9", "setting": "[1]; water/NaOH, pH = 9", "result": ">50", "unit": "g/l"},
      {"measurement": "Dissolution time", "setting": "[2]; listed as IR-2", "result": 20, "unit": "s"}
    ]},
    {"smiles": "CC1(C)C(/C=C/C2=C(Sc3ccccc3C(=O)O)C(=C/C=C3/N(CCCCS(=O)(=O)[O-])c4ccccc4C3(C)C)/CCC2)=[N+](CCCCS(=O)(=O)[O-])c2ccccc21.[K+]", "note": "[IR-dye 3]", "values": [
      {"measurement": "Solubility in MOP", "setting": "[1]; 2-methoxyl-propanol (MOP)", "result": ">100", "unit": "g/L"},
      {"measurement": "Solubility in H2O/NaOH at pH = 9", "setting": "[1]; water/NaOH, pH = 9", "result": ">50", "unit": "g/l"},
      {"measurement": "Dissolution time", "setting": "[2]; listed as IR-3", "result": 30, "unit": "s"}
    ]},
    {"smiles": "CC1(C)C(/C=C/C2=C(Sc3ccccc3C(=O)O)C(=C/C=C3/N(CCCCS(=O)(=O)[O-])c4ccccc4C3(C)C)/CCC2)=[N+](CCCCS(=O)(=O)[O-])c2ccccc21.[K+]", "note": "[IR-dye 4]", "values": [
      {"measurement": "Solubility in MOP", "setting": "[1]; 2-methoxyl-propanol (MOP)", "result": 5.7, "unit": "g/L"},
      {"measurement": "Solubility in H2O/NaOH at pH = 9", "setting": "[1]; water/NaOH, pH = 9", "result": ">50", "unit": "g/l"},
      {"measurement": "Dissolution time", "setting": "[2]; listed as IR-4", "result": 20, "unit": "s"}
    ]}
  ]
}
